Test results as given in patent publication US20100227767A1, “STOCHASTIC CONFINEMENT TO DETECT, MANIPULATE, AND UTILIZE MOLECULES AND ORGANISMS” (priority 2007, published 2010).

Experiments:
[1] = system: Methicillin Resistant S. aureus (MRSA, ATCC#43300); test: plug-based microfluidic antibiotic susceptibility screen with alamarBlue viability indicator; conditions: FIG. 2c; breakpoint concentration; negative control VCM, positive control blank
[2] = system: Staphylococcus aureus ATCC#25923 (MSSA); test: antibiotic testing on Mueller Hinton agar plates, MSSA; conditions: 30° C; even after 40 h
Protocol: Plates were made from Mueller Hinton Agar (Fluka, Switzerland). After autoclaving, the agar was cooled and antibiotics were added and 20 mL plates were poured. For CFX and OXA testing, 50 μL of MRSA and MSSA bacterial culture at 4×10^3 CFU/mL was spread onto separate TSA plates. The plates were incubated at 30° C. After 16.5 h and 40 h the plates were examined for colonies. […] For AMP, ERT, LVF, and VCM, 5 μL of culture at 2×10^4 CFU/mL were spread onto plates, and the plates were incubated at 37° C. for 12 h. After 12 h, growth of colonies on the plates was considered resistance to the antibiotic and no colonies on the plates were considered sensitivity to the antibiotic. For all tests, control plates with no antibiotic were inoculated to ensure that each plate tested received many CFU during inoculation.

[3] = system: Methicillin Sensitive S. aureus (MSSA); conditions: 24 mg/L; cited from earlier work
[4] = system: Methicillin Resistant S. aureus (MRSA); conditions: 24 mg/L; cited from earlier work
MSSA = test: plug-based drug screening in human blood plasma/LB, MSSA; conditions: MSSA in 1:1 human blood plasma/LB; breakpoint concentration; 7.5 h at 37° C
[5] = system: Methicillin Resistant S. aureus (MRSA, ATCC#43300); test: macro-scale experiments, MRSA

SMILES | plug fluorescence compared to positive and negative controls (unpaired t-test) [1] | appearance of MSSA colonies on antibiotic plates [2] | known inhibition of the strain by CFX [3] | known inhibition of the strain by CFX [4] | increase in fluorescence intensity of plugs with antibiotic (MSSA) | inhibition of the S. aureus strain in macro-scale experiments [5]
Cc1onc(-c2ccccc2)c1C(=O)N[C@@H]1C(=O)N2[C@@H]1SC(C)(C)[C@@H]2C(=O)O [OXA, oxacillin] | statistically different than the negative control | did not appear |  |  |  | 
CO[C@@]1(NC(=O)Cc2cccs2)C(=O)N2C(C(=O)O)=C(COC(N)=O)CS[C@@H]21 [CFX, cefoxitin] | statistically different than the negative control | did not appear | inhibited | inhibited |  | 
CC[C@H]1OC(=O)[C@H](C)[C@@H](O[C@H]2C[C@@](C)(OC)[C@@H](O)[C@H](C)O2)[C@H](C)[C@@H](O[C@@H]2O[C@H](C)C[C@H](N(C)C)[C@H]2O)[C@](C)(O)C[C@@H](C)C(=O)[C@H](C)[C@@H](O)[C@]1(C)O [ERT, erythromycin] | statistically different than the negative control |  |  |  |  | 
CC1(C)S[C@@H]2[C@H](NC(=O)[C@H](N)c3ccccc3)C(=O)N2[C@H]1C(=O)O [AMP, ampicillin] | statistically different than the negative control |  |  |  | no increase in fluorescence intensity | 
CN[C@H](CC(C)C)C(=O)N[C@H]1C(=O)N[C@@H](CC(N)=O)C(=O)N[C@H]2C(=O)N[C@H]3C(=O)N[C@H](C(=O)N[C@H](C(=O)O)c4cc(O)cc(O)c4-c4cc3ccc4O)[C@H](O)c3ccc(c(Cl)c3)Oc3cc2cc(c3O[C@@H]2O[C@H](CO)[C@@H](O)[C@H](O)[C@H]2O[C@H]2C[C@](C)(N)[C@H](O)[C@H](C)O2)Oc2ccc(cc2Cl)[C@H]1O [VCM, vancomycin] | statistically different than positive controls |  |  |  |  | inhibited
